Six compounds from ChEMBL document CHEMBL1157739, “5'-O-dephosphorylated 2',5'-oligoadenylate (2-5A) with 8-methyladenosine at the 2'-terminus activates human RNase L” (Bioorg Med Chem Lett, 2010) can be followed below.

Calls of active or inactive are those of the source. The rule behind the calls is not given here.

In data set [1] the target is T1, 2-5A-dependent ribonuclease (Homo sapiens, UniProt Q05823).
T1 sequence (Q05823 whole entry): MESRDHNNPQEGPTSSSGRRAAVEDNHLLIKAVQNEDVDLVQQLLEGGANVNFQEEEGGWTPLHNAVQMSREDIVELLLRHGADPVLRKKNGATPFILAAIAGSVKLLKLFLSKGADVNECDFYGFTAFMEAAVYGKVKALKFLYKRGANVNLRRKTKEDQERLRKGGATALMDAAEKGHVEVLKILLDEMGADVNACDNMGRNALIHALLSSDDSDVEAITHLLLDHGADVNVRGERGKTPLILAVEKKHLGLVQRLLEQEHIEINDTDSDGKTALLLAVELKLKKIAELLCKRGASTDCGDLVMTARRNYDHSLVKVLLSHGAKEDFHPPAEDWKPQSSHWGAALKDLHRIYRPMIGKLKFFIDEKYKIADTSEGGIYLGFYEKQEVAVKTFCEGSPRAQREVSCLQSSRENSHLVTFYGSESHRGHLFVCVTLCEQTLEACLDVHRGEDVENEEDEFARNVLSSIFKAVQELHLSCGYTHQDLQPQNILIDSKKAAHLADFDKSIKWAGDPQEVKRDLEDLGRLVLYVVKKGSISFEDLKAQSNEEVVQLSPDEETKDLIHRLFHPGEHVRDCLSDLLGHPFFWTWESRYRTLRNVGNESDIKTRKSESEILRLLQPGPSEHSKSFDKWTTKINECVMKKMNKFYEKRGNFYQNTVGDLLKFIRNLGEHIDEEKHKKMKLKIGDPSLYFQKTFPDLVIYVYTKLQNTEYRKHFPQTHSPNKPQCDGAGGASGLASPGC
The data set is described as follows: […] of human RNaseL ANK domain expressed in Escherichia coli assessed as 5' flurescein-r(C11U2C7)-3' RNA cleavage.

Data set [2] addresses T2, 2-5A-dependent ribonuclease (Homo sapiens) (UniProt Q05823).
T2 sequence (whole entry): T1 sequence (Q05823 whole entry)
Briefly: […] of human RNaseL ANK domain expressed in Escherichia col assessed as 5' flurescein-r(C11U2C7)-3' RNA cleavage relative to control. On the set-up: concentration or dose not given beside the values.

Data set [3] can be described thus: Stability assessed as half life. The format is physicochemical.

In general, EC50 refers to the concentration needed to bring the measured effect to its halfway point. As for `Cc1nc2c(N)ncnc2n1[C@@H]1O[C@H](COP(=O)(O)O[C@@H]2[C@H](O)[C@@H](COP(=O)(O)O[C@@H]3[C@H](O)[C@@H](COP(=O)(O)O[C@@H]4[C@H](O)[C@@H](COP(=O)(O)O)O[C@H]4n4cnc5c(N)ncnc54)O[C@H]3n3cnc4c(N)ncnc43)O[C@H]2n2cnc3c(N)ncnc32)[C@@H](O)[C@H]1O`, in data set [1] (read-out: EC50), the EC50 stood at 2.5 nM. Besides, the Activity in data set [2] was determined as 3.9%.
By half-life is commonly meant how long it takes for the measured level to halve. As to `Cc1nc2c(N)ncnc2n1[C@@H]1O[C@H](COP(=O)(O)O[C@@H]2[C@H](O)[C@@H](COP(=O)(O)O[C@@H]3[C@H](O)[C@@H](CO)O[C@H]3n3cnc4c(N)ncnc43)O[C@H]2n2cnc3c(N)ncnc32)[C@@H](O)[C@H]1OP(=O)(O)OC[C@H]1O[C@@H](n2cnc3c(N)ncnc32)[C@H](O)[C@@H]1O`, the EC50 in data set [1] (read-out: EC50) is > 50 nM. Besides, in data set [2], the Activity was < 0.19%. In data set [3], the half-life worked out at 18 min.
As to `Nc1ncnc2c1ncn2[C@@H]1O[C@H](COP(=O)(O)O[C@@H]2[C@H](O)[C@@H](COP(=O)(O)O[C@@H]3[C@H](O)[C@@H](COP(=O)(O)O[C@@H]4[C@H](O)[C@@H](CO)O[C@H]4n4cnc5c(N)ncnc54)O[C@H]3n3cnc4c(N)ncnc43)O[C@H]2n2cnc3c(N)ncnc32)[C@@H](O)[C@H]1O`, the EC50 result in data set [1] was “Not Active”. Also, in data set [2], the outcome was inactive. For the same compound, the half-life in data set [3] turned out to be 18 min.
On to `Cc1nc2c(N)ncnc2n1[C@@H]1O[C@H](COP(=O)(O)O[C@@H]2[C@H](O)[C@@H](COP(=O)(O)O[C@@H]3[C@H](O)[C@@H](CO)O[C@H]3n3cnc4c(N)ncnc43)O[C@H]2n2cnc3c(N)ncnc32)[C@@H](O)[C@H]1O`, for which, in data set [1] (read-out: EC50), the EC50 is > 50 nM. Besides, the Activity in data set [2] is < 0.19%. The half-life in data set [3] is 18 min.
As for `Nc1ncnc2c1ncn2[C@@H]1O[C@H](COP(=O)(O)O[C@@H]2[C@H](O)[C@@H](COP(=O)(O)O[C@@H]3[C@H](O)[C@@H](COP(=O)(O)O[C@@H]4[C@H](O)[C@@H](COP(=O)(O)O)O[C@H]4n4cnc5c(N)ncnc54)O[C@H]3n3cnc4c(N)ncnc43)O[C@H]2n2cnc3c(N)ncnc32)[C@@H](O)[C@H]1O`, the EC50 in data set [1] (read-out: EC50) was 9.7 nM. For the same compound, the Activity in data set [2] turned out to be 1%. The half-life in data set [3] came to 14 min.
Turning to `Cc1nc2c(N)ncnc2n1[C@@H]1O[C@H](COP(=O)(O)O[C@@H]2[C@H](O)[C@@H](COP(=O)(O)O[C@@H]3[C@H](O)[C@@H](COP(=O)(O)O[C@@H]4[C@H](O)[C@@H](CO)O[C@H]4n4cnc5c(N)ncnc54)O[C@H]3n3cnc4c(N)ncnc43)O[C@H]2n2cnc3c(N)ncnc32)[C@@H](O)[C@H]1O`, in data set [1] (read-out: EC50), the EC50 came to 2.5 nM. Also, in data set [2], the Activity was found to be 3.9%. Moreover, in data set [3], the half-life was > 90 min.
